Measurements as given in paper PMC3454376, “Salidroside Improves Behavioral and Histological Outcomes and Reduces Apoptosis via PI3K/Akt Signaling after Experimental Traumatic Brain Injury” (PLoS ONE, 2012).
Read-outs that look alike come from different tables or passages of the source.

Key:
[1] = Metabolic characteristics: serum BUN, CRE, ALT; assay type: in vivo, mice; settings: for BUN / CRE: mean ± SEM, n = 4–5 mice/group
Experimental: Three sets of experiments were performed. The first set was to investigate the protective effects of salidroside. All animals were randomized into 1 of 3 groups (sham injury, CCI + vehicle, CCI + SALD 20). Surgery/injury, behavioral testing, and tissue analyses were performed by different individuals. Behavioral testing and tissue analyses were performed by individuals blinded to the treatment group. Salidroside (Cayman Chemical, Ann Arbor, MI, USA) dissolved in normal saline (0.25 mL) or a corresponding volume of vehicle (saline) was administered intraperitoneally 10 min following injury. Testing after injury was completed as follows: 1) behavioral testing at days 1, 4, 7, 14, 21, and 28 (n = 8–10 mice/group); 2) cresyl violet staining at day 28 (n = 9 mice/group); 3) histology, determination of brain water content, and western blot analysis at day 1 or 3 (n = 5–6 mice/group). To determine the optimal dose of salidroside, a pilot study was performed using 2 different doses (20 and 50 mg/kg) administered 10 min after injury, and neurological deficits and tissue damage were evaluated as the main outcomes. […] The second set of experiment was to assess the effect of the inhibition of PI3K/Akt with the specific PI3K inhibitor, LY294002 (Cell Signaling Technology, Danvers, MA, USA), on salidroside effects. Animals were randomized into 4 groups. Mice received either: 1) icv pretreatment of LY294002 followed by SALD 20 after CCI (S20Y group); or 2) icv pretreatment of saline (vehicle control) followed by SALD 20 after CCI (S20V group). 3) Mice were infused icv with saline and were subjected to sham injury. 4) Mice were infused icv with LY294002 and were subjected to sham injury. Testing after injury was completed as follows: 1) cresyl violet staining at day 28 (n = 6 mice/group); 2) western blot analysis at day 1 (n = 6 mice/group). The third set of experiment was performed to examine the neuroprotective time window afforded by salidroside. Mice received intraperitoneal SALD 20 or vehicle (saline) at 3 or 6 h following CCI and were sacrificed 1 day later for FJB staining and western blot analysis (n = 6 mice/group).
Following terminal anesthesia, venous blood was collected via direct right atrial puncture. The obtained blood was centrifuged (3500 rpm for 5 min), and the serum was stored at −20°C until analysis. A chemistry analyzer (Synchron Clinical System LX20; Beckman Coulter, Fullerton, CA, USA) was used to measure serum BUN and CRE to assess renal function, and ALT to assess liver function.

[2] = tested on: mice subjected to controlled cortical impact injury; experiment: Residual cerebral tissue ratio, cresyl violet staining; assay type: in vivo; settings: day 28; for preservation of brain tissue (ipsilateral/contralateral hemisphere volume): vehicle 76.4±3.3%, P<0.05
Experimental: All animal procedures were approved by the Animal Research Committee at Cheng Hsin General Hospital (Animal permit number CHIACUC 101–08), and all procedures complied with the Guide for the Care and Use of Laboratory Animals published by the US National Institutes of Health (NIH Publication No. 85–23, revised 1996). Animals were housed under a 12-h light/dark cycle and at constant temperature (21–25°C) and humidity (45–50%). They were allowed free access to pellet chow and water. TBI in mice was induced by a CCI injury model as previously described. Briefly, 8-week-old male C57BL/6 mice (weighing 22–25 g) were anesthetized through the use of intraperitoneal injection of sodium pentobarbital (65 mg/kg; Rhone Merieux, Harlow, UK) and placed in a stereotaxic frame. A 5 mm craniotomy was performed over the right parietal cortex, centered on the coronal suture and 0.1 mm lateral to the sagittal suture, and injury to dura was avoided. Injury was induced using a pneumatic piston with a rounded metal tip (2.5 mm diameter) that was angled 22.5° to the vertical so that the tip was perpendicular with the brain surface at the center of the craniotomy. The impact, with a velocity of […] and a deformation depth of 2 mm below the dura, was applied. The bone flap was immediately replaced and sealed, and the scalp was sutured. Body temperature was monitored throughout the surgery by a rectal probe; temperature was maintained at 37.0±0.5°C using a heated pad. Mice were placed in a heated cage to maintain body temperature, while recovering from anesthesia. Sham-operated mice underwent the same procedure as injured mice, but without CCI.
Mice were anesthetized and positioned in a stereotaxic frame. LY294002 (200 nM in 0.5 µL of saline) or equal amount of physiological saline was intracerebroventricularly (icv) injected at 30 min before CCI as previously described. A 1 mm cranial burr hole was drilled into the skull. A 30-gauge needle on a Hamilton syringe was implanted into the lateral ventricle using stereotactic coordinates: 1.5 mm posterior to bregma and 1.0 mm right lateral to the midline, 2 mm in depth. LY294002 or saline was infused into the brain at a rate of 0.05 µL/min over 10 min with an infusion pump (KDS 310, KD Scientific Inc., Holliston, MA, USA), and the needle was left in place for an additional 20 min to prevent reflux. After the needle was removed, CCI procedure was conducted immediately. Sham-operated mice were infused icv with saline, but were not subjected to CCI.
Three sets of experiments were performed. […] To determine the optimal dose of salidroside, a pilot study was performed using 2 different doses (20 and 50 mg/kg) administered 10 min after injury, and neurological deficits and tissue damage were evaluated as the main outcomes. […]

[3] = parameters: method as in PMID 17631426; settings: rats, cited from earlier work

Question: For `OC[C@H]1O[C@@H](OCCc2ccc(O)cc2)[C@H](O)[C@@H](O)[C@@H]1O` [SALD, salidroside], which “plasma concentrations of BUN, CRE, ALT (effect of treatment)” value ([1]; 20 mg/kg) is on record?
Answer: did not alter

Question: And the BUN ([1]; SALD 20 mg/kg)?
Answer: 23.2 ± 2.49 mg/dL

Question: What about the CRE ([1]; SALD 20 mg/kg) of the same compound?
Answer: 0.17 ± 0.01 mg/dL

Question: What about the BUN ([1]; SALD 50 mg/kg) of the same compound?
Answer: 28.06 ± 4.5 mg/dL

Question: And the CRE ([1]; SALD 50 mg/kg)?
Answer: 0.16 ± 0.04 mg/dL

Question: What about the “preservation of brain tissue (ipsilateral/contralateral hemisphere volume)” value ([2]; 20 mg/kg ip 10 min after CCI) of the same compound?
Answer: 81.9±2.6%

Question: What about the “preservation of brain tissue (ipsilateral/contralateral hemisphere volume)” value ([2]; 50 mg/kg ip 10 min after CCI) of the same compound?
Answer: 80.7±2.8%

Question: What about the “residual cerebral tissue ratio” value ([2]; icv saline 30 min before CCI, then SALD 20 mg/kg ip (S20S group)) of the same compound?
Answer: 80.5±5.8%

Question: What about the “mean elimination half-life (t1/2)” value ([3]; intravenous administration) of the same compound?
Answer: around 0.5 h

Question: And the “mean elimination half-life (t1/2)” value ([3]; oral administration)?
Answer: ~1.1 h
